# Assay results: patent publication US8722578B2, “Spiroheterocyclic pyrrolidinedione herbicidal compositions” (Syngenta Participations AG, priority 2008, dated 2014)
# How the values were obtained:
# [1] = test system: Echinochloa crus-galli (ECHCG); assay: Example B pre-emergence herbicidal activity, glasshouse pot test; format: in vivo; conditions: 312 h, first table (headed Post-Emergence, taken as pre-emergence), evaluated after 13 days, read-out: ECHCG activity (100=total damage to plant; 0=no damage to plant); for pest or weed control at 250 g/ha: rate 250 g/ha
# How it was run: (§1)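 Seeds sown in standard soil in pots were sprayed 1 day (pre-emergence) or 8 days (post-emergence) after sowing with active ingredient in acetone/water (50:50) containing 0.5% Tween 20. Plants were held in a glasshouse at 24/16° C day/night, 14 h light, 65% humidity, and damage was scored after 13 days (0–100).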
# [2] = test system: Alopecurus myosuroides (ALOMY); assay: as above; format: in vivo; conditions: 312 h, first table (headed Post-Emergence, taken as pre-emergence), evaluated after 13 days, read-out: ALOMY activity (100=total damage to plant; 0=no damage to plant); for pest or weed control at 250 g/ha: rate 250 g/ha
# How it was run: as §1
# Avena fatua (AVEFA) [3] = assay: as above; format: in vivo; conditions: 312 h, first table (headed Post-Emergence, taken as pre-emergence), evaluated after 13 days, read-out: AVEFA activity (100=total damage to plant; 0=no damage to plant); for pest or weed control at 250 g/ha: rate 250 g/ha
# How it was run: as §1
# Setaria faberi (SETFA) [4] = assay: as above; format: in vivo; conditions: 312 h, first table (headed Post-Emergence, taken as pre-emergence), evaluated after 13 days, read-out: SETFA activity (100=total damage to plant; 0=no damage to plant); for pest or weed control at 250 g/ha: rate 250 g/ha
# How it was run: as §1
# [5] = test system: Echinochloa crus-galli (ECHCG); assay: Example A post-emergence herbicidal activity, glasshouse pot test; format: in vivo; conditions: 360 h, rate 125 g/ha, evaluated 15 days after spraying, read-out: ECHOG post-emergence activity (100=total damage to plant; 0=no damage to plant)
# Procedure: (§2) Monocotyledonous and dicotyledonous test plants are sown in standard soil in pots. After cultivation for one day (pre-emergence) or after 10 days cultivation (post-emergence) under controlled conditions in a glasshouse, the plants are sprayed with an aqueous spray solution derived from the formulation of the technical active ingredient in 0.6 ml acetone and 45 ml formulation solution containing 10.6% Emulsogen EL (Registry number 61791-12-6), 42.2% N-methylpyrrolidone, 42.2% dipropylene glycol monomethyl ether (Registry number 34590-94-8) and 0.2% X-77 (Registry number 11097-66-8). The test plants are then grown in a greenhouse under optimum conditions until, 15 days later for post-emergence and 20 days for pre-emergence, the test is evaluated (100=total damage to plant; 0=no damage to plant). Test Plants: Alopecurus myosuroides (ALOMY), Avena fatua (AVEFA), Lolium perenne (LOLPE), Setaria faberi (SETFA), Digitaria sanguinalis (DIGSA), Echinochloa crus-galli (ECHCG) Post-Emergence Activity
# [6] = test system: Alopecurus myosuroides (ALOMY); assay: as above; format: in vivo; conditions: 360 h, rate 125 g/ha, evaluated 15 days after spraying, read-out: ALOMY post-emergence activity (100=total damage to plant; 0=no damage to plant)
# Procedure: as §2
# Avena fatua (AVEFA) [7] = assay: as above; format: in vivo; conditions: 360 h, rate 125 g/ha, evaluated 15 days after spraying, read-out: AVEFA post-emergence activity (100=total damage to plant; 0=no damage to plant)
# Procedure: as §2
# [8] = test system: Digitaria sanguinalis (DIGSA); assay: as above; format: in vivo; conditions: 360 h, rate 125 g/ha, evaluated 15 days after spraying, read-out: DIGSA post-emergence activity (100=total damage to plant; 0=no damage to plant)
# Procedure: as §2
# Setaria faberi (SETFA) [9] = assay: as above; format: in vivo; conditions: 360 h, rate 125 g/ha, evaluated 15 days after spraying, read-out: SETFA post-emergence activity (100=total damage to plant; 0=no damage to plant)
# Procedure: as §2
# Lolium perenne (LOLPE) [10] = assay: as above; format: in vivo; conditions: 360 h, rate 125 g/ha, evaluated 15 days after spraying, read-out: LOLPE post-emergence activity (100=total damage to plant; 0=no damage to plant)
# Procedure: as §2
# [11] = test system: Echinochloa crus-galli (ECHCG); assay: Example B post-emergence herbicidal activity, glasshouse pot test; format: in vivo; conditions: 312 h, evaluated after 13 days, read-out: ECHCG post-emergence activity (100=total damage to plant; 0=no damage to plant); for pest or weed control at 250 g/ha: rate 250 g/ha
# How it was run: as §1
# [12] = test system: Alopecurus myosuroides (ALOMY); assay: as above; format: in vivo; conditions: 312 h, evaluated after 13 days, read-out: ALOMY post-emergence activity (100=total damage to plant; 0=no damage to plant); for pest or weed control at 250 g/ha: rate 250 g/ha
# How it was run: as §1
# Avena fatua (AVEFA) [13] = assay: as above; format: in vivo; conditions: 312 h, evaluated after 13 days, read-out: AVEFA post-emergence activity (100=total damage to plant; 0=no damage to plant); for pest or weed control at 250 g/ha: rate 250 g/ha
# How it was run: as §1
# Setaria faberi (SETFA) [14] = assay: as above; format: in vivo; conditions: 312 h, evaluated after 13 days, read-out: SETFA post-emergence activity (100=total damage to plant; 0=no damage to plant); for pest or weed control at 250 g/ha: rate 250 g/ha
# How it was run: as §1
# [15] = test system: Echinochloa crus-galli (ECHCG); assay: Example A pre-emergence herbicidal activity, glasshouse pot test; format: in vivo; conditions: 480 h, rate 250 g/ha, evaluated 20 days after spraying, read-out: ECHOG pre-emergence activity (100=total damage to plant; 0=no damage to plant)
# Procedure: as §2, with “Pre-Emergence” for “Post-Emergence”
# [16] = test system: Alopecurus myosuroides (ALOMY); assay: as above; format: in vivo; conditions: 480 h, rate 250 g/ha, evaluated 20 days after spraying, read-out: ALOMY pre-emergence activity (100=total damage to plant; 0=no damage to plant)
# Procedure: as §2, with “Pre-Emergence” for “Post-Emergence”
# Avena fatua (AVEFA) [17] = assay: as above; format: in vivo; conditions: 480 h, rate 250 g/ha, evaluated 20 days after spraying, read-out: AVEFA pre-emergence activity (100=total damage to plant; 0=no damage to plant)
# Procedure: as §2, with “Pre-Emergence” for “Post-Emergence”
# [18] = test system: Digitaria sanguinalis (DIGSA); assay: as above; format: in vivo; conditions: 480 h, rate 250 g/ha, evaluated 20 days after spraying, read-out: DIGSA pre-emergence activity (100=total damage to plant; 0=no damage to plant)
# Procedure: as §2, with “Pre-Emergence” for “Post-Emergence”
# Setaria faberi (SETFA) [19] = assay: as above; format: in vivo; conditions: 480 h, rate 250 g/ha, evaluated 20 days after spraying, read-out: SETFA pre-emergence activity (100=total damage to plant; 0=no damage to plant)
# Procedure: as §2, with “Pre-Emergence” for “Post-Emergence”
# Lolium perenne (LOLPE) [20] = assay: as above; format: in vivo; conditions: 480 h, rate 250 g/ha, evaluated 20 days after spraying, read-out: LOLPE pre-emergence activity (100=total damage to plant; 0=no damage to plant)
# Procedure: as §2, with “Pre-Emergence” for “Post-Emergence”
Compound,melting point,pest or weed control at 125 g/ha [5],pest or weed control at 125 g/ha [6],pest or weed control at 125 g/ha (Avena fatua (AVEFA) [7]),pest or weed control at 125 g/ha [8],pest or weed control at 125 g/ha (Setaria faberi (SETFA) [9]),pest or weed control at 125 g/ha (Lolium perenne (LOLPE) [10]),pest or weed control at 250 g/ha [15],pest or weed control at 250 g/ha [16],pest or weed control at 250 g/ha (Avena fatua (AVEFA) [17]),pest or weed control at 250 g/ha [18],pest or weed control at 250 g/ha (Setaria faberi (SETFA) [19]),pest or weed control at 250 g/ha (Lolium perenne (LOLPE) [20]),pest or weed control at 250 g/ha [1],pest or weed control at 250 g/ha [2],pest or weed control at 250 g/ha (Avena fatua (AVEFA) [3]),pest or weed control at 250 g/ha (Setaria faberi (SETFA) [4]),pest or weed control at 250 g/ha [11],pest or weed control at 250 g/ha [12],pest or weed control at 250 g/ha (Avena fatua (AVEFA) [13]),other results
C=CCOC(=O)OC1=C(c2c(C)cc(C)cc2C)C(=O)NC12CCN(OC)CC2 [Compound P43],174 to 176 °C,60%,60%,40%,70%,50%,70%,80%,80%,70%,90%,80%,70%,,,,,,,,pest or weed control at 1000 g/ha ([1]; rate 1000 g/ha): 100%; pest or weed control at 1000 g/ha ([2]; rate 1000 g/ha): 100%; pest or weed control at 1000 g/ha (Avena fatua (AVEFA) [3]; rate 1000 g/ha): 90%; pest or weed control at 1000 g/ha (Setaria faberi (SETFA) [4]; rate 1000 g/ha): 100%; pest or weed control at 1000 g/ha ([11]; rate 1000 g/ha): 90%; pest or weed control at 1000 g/ha ([12]; rate 1000 g/ha): 90%; pest or weed control at 1000 g/ha (Avena fatua (AVEFA) [13]; rate 1000 g/ha): 90%; pest or weed control at 1000 g/ha (Setaria faberi (SETFA) [14]; rate 1000 g/ha): 90%
CCOC(=O)OC1=C(c2cc(-c3ccc(Cl)cc3)c(C)cc2C)C(=O)NC12CCN(OC)CC2 [Compound P53],211 to 213 °C,60%,20%,0%,60%,50%,0%,50%,0%,30%,60%,40%,20%,0%,0%,0%,80%,90%,70%,30%,pest or weed control at 250 g/ha (Setaria faberi (SETFA) [14]): 90%
CON1CCC2(CC1)NC(=O)C(c1ccc(Br)cc1Cl)=C2OC(=O)C(C)(C)C [Compound P67],223 to 225 °C,70%,40%,60%,80%,70%,40%,60%,0%,40%,20%,50%,10%,70%,80%,60%,100%,100%,100%,60%,pest or weed control at 250 g/ha (Setaria faberi (SETFA) [14]): 90%
